Test results published in patent US6258845A (priority 1999, dated 2001).
“Also recorded” adds a separate entry of the source. Like-named read-outs stand apart in the source and are kept apart here.

Legend:
[1] = tested on: tumor cells; details: cited from earlier work
[2] = tested on: Caco-2 parental cells, Ki-ras clone #60 and Ki-ras clone #66; experiment: Viable cell number (trypan blue dye exclusion), growth of Caco-2 parental and Ki-ras transfected cells; format: cell-based, human
Description: Effect of sulindac sulfide and sulfone on the growth of Ki-ras transfected cells. […] Viable cell number was determined by trypan blue dye exclusion.
Caco-2 cells were maintained in Modified Eagle Media (GIBCO, Grand Island, N.Y.) supplemented with 10% fetal bovine serum and a 1% penicillin (10,000 units/ml)-streptomycin (10,000 mg/ml) solution (GIBCO, Grand Island, N.Y.). Transfected Caco-2 cells resistant to neomycin were maintained in 400 μg/ml G418. Cells were maintained at 37° in the presence of 5% CO2 in air.
All cells were passed into new medium every two to three days, just prior to confluence. Drug additions were performed at the time of cell seeding and in MEM for each cell line unless otherwise noted. […] The two metabolites of sulindac, sulindac sulfone and sulfide, were obtained from Cell Pathways, Inc. (Horsham Pa.).
Caco-2 cells were removed from the monolayer by treatment with trypsin (1500 units/ml, Calbiochem, San Diego, Calif.)-EDTA (.7mM) and counted using a hemocytometer. A sample of the cell suspension was combined in a 1:1 volume ratio with trypan blue dye (GIBCO, Grand Island, N.Y.), and at least two independently prepared suspensions were counted on a hemocytometer, two counts each. For all cell types, viability was determined by the percentage of cells able to exclude the trypan blue dye.

[3] = tested on: Caco-2 and clone 60 cells; experiment: Clonogenic assay (colony-forming efficiency), Caco-2 and clone 60 cells; format: cell-based, human
[4] = tested on: Ki-ras transfected Caco-2 cells; experiment: Induction of apoptosis in Ki-ras transfected versus parental Caco-2 cells; format: cell-based, human; details: 120 μM sulfide, 600 μM sulfone
Description: (§1) FIG. 3. […] Apoptosis was determined by light microscopy.

[5] = tested on: Caco-2 parental cells; experiment: Induction of apoptosis (light microscopy) in Caco-2 parental cells; format: cell-based, human; details: Caco-2 parental
Description: as §1
(§2) FIG. 8. […] Cells were grown over a period of 6 days. Cells were harvested at various days (0, 2, 4 and 6 days), spun onto slides and stained. Apoptosis was determined by light microscopy. Percentage of apoptotic cells was calculated as the number of apoptotic cells out of the total cells counted times 100. At least 500 cells were counted for each sample.
(§3) Cells were grown over a period of 6 days. Cells were harvested at various days (0, 2, 4 and 6 days), spun onto slides and stained. Apoptosis was determined by light microscopy. Percentage of apoptotic cells was calculated as the number of apoptotic cells out of the total cells counted times 100.

[6] = tested on: Ki-ras clone #60; experiment: Induction of apoptosis (light microscopy) in Ki-ras clone 60; format: cell-based, human
Description: as §1, §2, §3

[7] = tested on: COX (cyclooxygenase); details: cited from earlier work
[8] = tested on: Ki-ras codon 12 mutations in the AOM-treated rat; experiment: Ki-ras codon 12 mutations in colon tumors of AOM-treated rats (PCR-RFLP); format: in vivo; details: 0-1000 ppm in the food
Source text: A PCR™-RFLP assay is used to screen for codon 12 mutations in Ki-ras in colon adenocarcinomas from AOM-treated rats, because more than 60% of Ki-ras mutations in these tumors occur at this site (Jiang et al., 1989). PCR™ will be performed using primers designed to create a BstN1 restriction endonuclease site at codon 12 of the Ki-ras gene as described (Searle et al., 1982) a G→C change made at codon 11.3 bp from the 3' end of the wildtype upstream primer: 5'[…]-3') Ki-ras mutations are determined by whether a change had occurred in the BsN1 site. If a mutation had occurred, no change in base pair length from uncut PCR™ fragments would occur. Restriction enzyme digested PCR™ products were electrophoresed on a 3.5% agarose gel, stained with ethidium bromide, and visualized under […] UV trans-illumination for the presence of mutations.
Putative Ki-ras mutations detected by this assay method in colon adenocarcinomas obtained from AOM-treated rats will be confirmed by DNA sequencing methods.

[9] = tested on: Ki-ras clone #60 cells; experiment: Clonogenic assay (colony-forming efficiency), Ki-ras clone 60; format: cell-based, human; details: with or without DFMO; normalized survival
[10] = tested on: carcinogenesis in rodent/animal models; details: in vivo; cited from earlier work
[11] = tested on: AOM-treated rat model of colon carcinogenesis; experiment: Colon carcinogenesis in the AOM-treated rat / rodent model; details: sulfoxide and sulfone forms
[12] = cited from earlier work
[13] = tested on: colorectal adenomas/polyps; experiment: Sulindac effect on colorectal adenomas/polyps in patients; details: randomized phase IIb
[14] = cited from earlier work; remark: listed apart in the source
[15] = sulindac 400 mg per day; cited from earlier work
[16] = tested on: colorectal adenomas/polyps; details: cited from earlier work
[17] = tested on: AOM-treated rat model of colon carcinogenesis; details: in vivo; cited from earlier work
[18] = tested on: tumors harboring Ki-ras mutations in AOM-treated rats; details: cited from earlier work
[19] = 600 μM sulfone vs 120 μM sulfide

CC1=C(CC(=O)O)c2cc(F)ccc2/C1=C\c1ccc(S(C)(=O)=O)cc1 [sulindac sulfone]
induction of apoptosis in tumor cells [1]: induces apoptosis in tumor cells | Ki-ras selective toxicity / Ki-ras-specific effect on growth ([2]; 120 μM sulindac sulfide or 600 μM sulindac sulfone): nor did sulindac sulfide or sulfone exert a Ki-ras-specific effect on growth | number of viable cells ([2]; 600 μM sulindac sulfone): pronounced cell loss beginning 6 days after treatment | IC50 ([3]; Homo sapiens, Caco-2, 24 h treatment, replated, colony formation, read-out: 50% decrease in cell number): ~800 µM | effect of Ki-ras activation on viability / colony-forming efficiency after sulindac metabolite ([3]; increasing concentrations, 24 h): did not reveal any differences in colony-forming efficiency between Ki-ras transfectants and parental Caco-2 cells | onset of apoptosis in Ki-ras transfected cells compared with parental cells [4]: accelerate the onset of apoptosis; also recorded: occurred several days earlier in Ki-ras transfected cells than in parental cells | induction of apoptosis, sulfone compared with sulfide [5, 19]: more pronounced than with the sulfide | time of peak apoptosis ([5]; 600 μM sulindac sulfone): 8 days | induction of apoptosis, sulfone compared with sulfide [6, 19]: more pronounced than with the sulfide | time of peak apoptosis ([6]; 600 μM sulindac sulfone): 6 days | COX / prostaglandin synthesis inhibition [7]: does not | COX / prostaglandin synthesis inhibition ([7]; listed as Sulindac sulfone): lacks COX-inhibitory activity | dose-dependency of Ki-ras mutation reduction [8]: some indication of dose-dependency | frequency of AOM-induced codon 12 mutations in Ki-ras ([8]; from 19/31 (61%)): 14% | incidence of AOM-induced codon 12 mutations in Ki-ras ([8]; from 19/31 (61%)): 5/35 | resistance of clone 60 to sulindac sulfone [9]: slightly more resistant to the effects of sulindac sulfone than the parental cells | chemoprevention / inhibition of tumor development in animal models [10]: inhibits tumor development in several rodent models of carcinogenesis | inhibition of carcinogenesis in the AOM-treated rat [11]: inhibit carcinogenesis in the AOM-treated rat, with similar potencies

CC1=C(CC(=O)O)c2cc(F)ccc2/C1=C\c1ccc([S+](C)[O-])cc1 (stereo not drawn) [sulindac, (Z)-5-Fluoro-2-methyl-1-((4 (methylsulfinyl)phenyl)methylene) 1H-indene-3-acetic acid]
time of peak plasma levels ([12]; fasting patients): about 2 hours | half-life ([12]; human, in vivo, po): 7 h | mean half-life ([12]; human, in vivo, po): 7.8 h | absorption of drug ([12]; oral administration): about 90% | 150 mg per day vs. twice per day [13]: comparable results | safety in phase IIb study [13]: safe | polyp regression and development of new polyps ([13]; 150 mg per day or twice per day): regression of extant polyps shown | borderline elevations in one or more liver function test ([14]; human, in vivo): 15 % of clinical trial patients | gastrointestinal toxicity / ulceration ([14]; human, in vivo): serious gastrointestinal toxicity such as bleeding, ulceration, and perforation | meaningful elevations in liver function test (3 times upper limit of normal) ([14]; human, in vivo): less than 1% | mild gastrointestinal effects ([14]; human, in vivo): ~20 % of patients | skin rash and pruritus ([14]; human, in vivo): 5 % of patients | gastrointestinal toxicity / ulceration ([14]; human, in vivo, listed as Sulindac): G.I. ulceration that in general is dose-related; also recorded: can produce gastric irritation and bleeding | granulocytosis, aplastic anemia, hemolytic anemia ([14]; rare adverse effects): less than 1% | gastrointestinal pain ([14]; therapeutic doses): 10% | analgesic and antiinflamatory effects [15]: comparable to those achieved by aspirin (4 g per day), ibuprofin (1200 mg per day), indomethacin (125 mg per day), and phenylbutazone (400 to 600 mg per day) | regression of adenomas in FAP patients ([16]; FAP patients): regression of adenomas | clinical regression of polyps ([16]; several studies): can cause clinical regression of polyps | effect on sporadic adenomas ([16]; sporadic adenomas): no such effect | COX / prostaglandin synthesis inhibition [7]: inhibit cycloxygenase and prostaglandin synthesis | apoptosis in AOM-treated rodent model [17]: cause apoptosis | inhibition of colon carcinogenesis in AOM-treated rat model [17]: effectively inhibit colon carcinogenesis | Ki-ras mutation / tumors harboring an activated Ki-ras [18]: reduces the number of tumors harboring an activated Ki-ras | inhibition of carcinogenesis in the AOM-treated rat [11]: inhibit carcinogenesis in the AOM-treated rat, with similar potencies
